pIC50: −log10 of the molar value.
What was measured:
[1] = molecular target: T1, EGFR with insertion SVD between D770 and N771 (mutEGFR D770_N771insSVD) (Homo sapiens, UniProt P00533, DUP768-770); test: Exon20-Mutant-EGFR(D770_N771insSVD) kinase assay (TR-FRET); type: biochemical; conditions: 2 mM ATP, Table 2
T1 construct: amino acids R669 to A1210; made in house; host or cells: Sf9 insect cells (baculovirus)

Ba/F3-EGFR-WT cells = Ba/F3-EGFR-WT cells (Homo sapiens, UniProt P00533); test: Ba/F3 cell survival assay, wild type EGFR; type: cell-based; conditions: Cell Titer-Glo, 48 h, with 10 ng/mL EGF; Table 4; read-out: BA/F3 (wild type) IC50
Bub1 = molecular target: T2, Bub1 (Homo sapiens, UniProt O43683); test: Bub1 high ATP kinase assay (TR-FRET); type: biochemical; conditions: Bub1 high ATP (2 mM) IC50, TR-FRET, 2 mM ATP; Table 3
T2 construct: catalytic domain of human Bub1 (amino acids 704-1085); His6 (N); made in house; host or cells: insect cells (Hi5)
Source text: Bub1 high ATP Kinase Assay
Bub1-inhibitory activity of compounds of the present invention at a high ATP concentration was quantified employing the Bub1 TR-FRET high ATP kinase assay as described in the following paragraphs.
N-terminally His6-tagged recombinant catalytic domain of human Bub1 (amino acids 704-1085), expressed in insect cells (Hi5) and purified by Ni-NTA affinity chromatography and subsequent size exclusion chromatography, was used as enzyme. As substrate for the kinase reaction the biotinylated peptide biotin-Ahx-[…] (C-terminus in amid form) was used which can be purchased e.g. form the company Biosyntan (Berlin, Germany).
Then the kinase reaction was started by the addition of 2 μl of a solution of Bub1 in assay buffer and the resulting mixture was incubated for a reaction time of 60 min at 22° C. The concentration of Bub1 was adjusted depending of the activity of the enzyme lot and was chosen appropriate to have the assay in the linear range, a typical concentration is about 200 ng/ml. The reaction was stopped by the addition of 3 μl of a solution of TR-FRET detection reagents (0.167 μM streptavidine-XL665 [Cisbio Bioassays, Codolet, France] and 1.67 nM anti-phosho-Serine antibody [Merck Millipore, cat. #35-002] and 0.67 nM LANCE EU-W1024 labeled anti-mouse IgG antibody [Perkin-Elmer, product no. AD0077, as an alternative a Terbium-cryptate-labeled anti-mouse IgG antibody from Cisbio Bioassays can be used]) in an aqueous EDTA-solution (83.3 mM EDTA, 0.2% (w/v) bovine serum albumin in 100 mM HEPES pH 7.5).
The resulting mixture was incubated 1 h at 22° C. to allow the formation of complex between the phosphorylated biotinylated peptide and the detection reagents. Subsequently the amount of phosphorylated substrate was evaluated by measurement of the resonance energy transfer from the Eu-chelate to the streptavidine-XL. Therefore, the fluorescence emissions at 620 nm and 665 nm after excitation at 350 nm was measured in a TR-FRET reader, e.g. a Pherastar or Pherastar FS (both from BMG Labtechnologies, Offenburg, Germany) or a Viewlux (Perkin-Elmer). The ratio of the emissions at 665 nm and at 622 nm was taken as the measure for the amount of phosphorylated substrate.

[2] = molecular target: Ba/F3-EGFR-D770_N771insSVD cells (Homo sapiens, UniProt P00533, DUP768-770, cells depend on it); test: Ba/F3 cell survival assay, EGFR D770_N771insSVD; type: cell-based; conditions: Cell Titer-Glo, 48 h, without IL-3; Table 4; read-out: BA/F3 (insSVD) IC50
Ba/F3-EGFR-D770_N771insSVD cells, sequence (P00533 with tags, fused parts or gaps DUP768-770): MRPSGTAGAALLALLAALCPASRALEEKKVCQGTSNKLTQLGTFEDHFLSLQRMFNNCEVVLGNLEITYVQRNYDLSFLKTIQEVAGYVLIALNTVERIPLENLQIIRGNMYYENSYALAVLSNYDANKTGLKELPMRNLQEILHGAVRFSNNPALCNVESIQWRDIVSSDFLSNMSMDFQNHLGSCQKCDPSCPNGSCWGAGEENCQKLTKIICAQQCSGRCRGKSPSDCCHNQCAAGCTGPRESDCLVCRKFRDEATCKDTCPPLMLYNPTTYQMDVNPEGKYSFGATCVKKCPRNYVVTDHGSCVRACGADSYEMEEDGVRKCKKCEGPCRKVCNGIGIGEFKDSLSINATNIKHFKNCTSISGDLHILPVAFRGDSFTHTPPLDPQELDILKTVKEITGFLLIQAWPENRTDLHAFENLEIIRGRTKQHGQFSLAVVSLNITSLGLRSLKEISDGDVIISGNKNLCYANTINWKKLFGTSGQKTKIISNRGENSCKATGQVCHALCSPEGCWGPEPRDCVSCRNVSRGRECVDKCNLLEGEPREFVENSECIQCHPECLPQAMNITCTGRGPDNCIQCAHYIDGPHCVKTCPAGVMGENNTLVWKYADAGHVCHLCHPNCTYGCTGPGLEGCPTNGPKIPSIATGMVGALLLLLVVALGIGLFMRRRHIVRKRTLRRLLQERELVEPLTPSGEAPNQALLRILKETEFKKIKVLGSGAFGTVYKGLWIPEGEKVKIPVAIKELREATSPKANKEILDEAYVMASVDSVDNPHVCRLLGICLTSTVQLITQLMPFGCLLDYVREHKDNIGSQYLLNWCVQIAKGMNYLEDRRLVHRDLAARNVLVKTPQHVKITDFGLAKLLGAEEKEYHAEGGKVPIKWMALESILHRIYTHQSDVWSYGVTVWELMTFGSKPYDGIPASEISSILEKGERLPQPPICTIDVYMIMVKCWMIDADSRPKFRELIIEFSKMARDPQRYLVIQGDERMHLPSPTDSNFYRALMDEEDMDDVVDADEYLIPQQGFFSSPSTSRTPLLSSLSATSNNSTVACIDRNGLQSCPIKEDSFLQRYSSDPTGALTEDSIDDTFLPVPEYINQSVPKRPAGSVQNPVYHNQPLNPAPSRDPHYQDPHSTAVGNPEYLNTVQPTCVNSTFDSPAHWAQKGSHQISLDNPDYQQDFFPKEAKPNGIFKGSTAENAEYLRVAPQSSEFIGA

T1 sequence (P00533 other isoform, or with tags, fused parts or gaps DUP768-770): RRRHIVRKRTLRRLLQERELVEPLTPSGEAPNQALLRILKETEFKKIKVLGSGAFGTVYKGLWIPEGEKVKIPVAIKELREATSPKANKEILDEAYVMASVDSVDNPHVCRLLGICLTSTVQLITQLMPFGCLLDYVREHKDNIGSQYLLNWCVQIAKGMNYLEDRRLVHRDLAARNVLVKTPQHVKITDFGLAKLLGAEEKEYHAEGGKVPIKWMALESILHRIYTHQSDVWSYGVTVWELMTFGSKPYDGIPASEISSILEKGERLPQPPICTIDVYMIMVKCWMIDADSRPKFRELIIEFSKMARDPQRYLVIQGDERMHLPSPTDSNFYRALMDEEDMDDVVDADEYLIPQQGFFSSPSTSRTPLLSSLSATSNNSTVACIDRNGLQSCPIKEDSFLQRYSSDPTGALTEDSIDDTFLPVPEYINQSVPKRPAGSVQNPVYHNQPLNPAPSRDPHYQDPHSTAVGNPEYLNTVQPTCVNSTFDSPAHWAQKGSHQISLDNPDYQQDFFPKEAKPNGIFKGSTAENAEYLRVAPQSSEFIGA
T2 sequence (O43683 704-1085): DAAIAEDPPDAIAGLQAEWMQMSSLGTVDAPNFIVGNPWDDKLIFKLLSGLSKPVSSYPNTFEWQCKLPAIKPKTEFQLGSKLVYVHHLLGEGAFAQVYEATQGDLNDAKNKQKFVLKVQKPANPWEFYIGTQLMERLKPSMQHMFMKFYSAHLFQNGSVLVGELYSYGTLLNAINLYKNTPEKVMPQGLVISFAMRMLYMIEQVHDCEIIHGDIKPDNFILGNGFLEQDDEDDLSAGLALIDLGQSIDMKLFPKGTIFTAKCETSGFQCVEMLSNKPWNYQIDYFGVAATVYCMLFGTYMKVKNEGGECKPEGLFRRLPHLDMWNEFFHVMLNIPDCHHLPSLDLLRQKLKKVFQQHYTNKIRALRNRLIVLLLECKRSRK
Ba/F3-EGFR-WT cells, sequence (P00533 whole entry, looked up, change not shown): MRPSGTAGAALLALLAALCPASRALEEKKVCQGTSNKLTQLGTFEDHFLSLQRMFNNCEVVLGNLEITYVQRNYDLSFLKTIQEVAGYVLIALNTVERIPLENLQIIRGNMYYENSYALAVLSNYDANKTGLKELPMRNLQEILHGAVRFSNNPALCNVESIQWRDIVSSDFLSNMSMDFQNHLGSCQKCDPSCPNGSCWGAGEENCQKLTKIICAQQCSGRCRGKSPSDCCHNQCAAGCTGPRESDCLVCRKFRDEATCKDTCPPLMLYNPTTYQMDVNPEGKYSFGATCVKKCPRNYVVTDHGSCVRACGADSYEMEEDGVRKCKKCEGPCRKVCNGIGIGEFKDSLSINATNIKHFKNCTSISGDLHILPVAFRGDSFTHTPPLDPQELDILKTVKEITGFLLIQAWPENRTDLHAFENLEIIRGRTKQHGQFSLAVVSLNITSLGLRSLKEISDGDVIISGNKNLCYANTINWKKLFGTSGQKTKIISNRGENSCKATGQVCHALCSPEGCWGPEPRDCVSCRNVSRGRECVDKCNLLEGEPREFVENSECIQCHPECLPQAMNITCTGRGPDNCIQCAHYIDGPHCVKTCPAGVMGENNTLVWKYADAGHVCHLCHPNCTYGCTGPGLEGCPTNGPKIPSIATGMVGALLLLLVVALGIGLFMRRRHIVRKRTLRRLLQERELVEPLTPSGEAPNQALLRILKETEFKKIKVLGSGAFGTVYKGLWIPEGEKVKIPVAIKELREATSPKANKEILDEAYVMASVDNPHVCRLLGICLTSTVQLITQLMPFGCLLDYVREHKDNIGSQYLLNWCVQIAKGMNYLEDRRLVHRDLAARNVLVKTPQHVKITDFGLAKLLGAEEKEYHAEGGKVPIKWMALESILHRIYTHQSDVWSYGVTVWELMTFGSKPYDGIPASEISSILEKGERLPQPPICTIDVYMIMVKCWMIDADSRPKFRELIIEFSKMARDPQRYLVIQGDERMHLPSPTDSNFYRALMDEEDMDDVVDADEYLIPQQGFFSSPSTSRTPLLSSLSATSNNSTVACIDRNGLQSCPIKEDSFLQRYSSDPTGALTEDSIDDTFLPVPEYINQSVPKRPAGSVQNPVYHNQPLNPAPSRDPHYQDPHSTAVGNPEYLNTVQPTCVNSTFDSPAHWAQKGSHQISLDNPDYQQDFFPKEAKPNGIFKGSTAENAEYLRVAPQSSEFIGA

Structure (SMILES) | mutEGFR (D770_N771insSVD) kinase assay IC50 [1] [pM] | pIC50 (Bub1) | GI50 (Ba/F3-EGFR-WT cells) [nM] | GI50 [2] [nM]
COc1c(Cl)cccc1Nc1c(-c2ccncc2OCC2COC(C)(C)CO2)[nH]c2c1C(=O)N[C@H](C)C2 (mixture of isomers) [Example 77, (6R)-3-(3-chloro-2-methoxy-anilino)-2-{3-[(5,5-dimethyl-1,4-dioxan-2-yl)methoxy]-4-pyridyl}-6-methyl-1,5,6,7-tetrahydropyrrolo[3,2-c]pyridin-4-one] | 150 | < 4.70 | 3200 | 15.3
COCC(C)Oc1cnccc1-c1[nH]c2c(c1Nc1cccc(Cl)c1OC)C(=O)N[C@@H]1CCC[C@H]21 (stereo partly drawn) [Example 49, (5aR,8aS)-3-(3-chloro-2-methoxyanilino)-2-{3-[(1-methoxypropan-2-yl)oxy]-4-pyridyl}-5,5a,6,7,8,8a-hexahydrocyclopenta[b]pyrrolo[2,3-d]pyridin-4(1)-one] | 275 | 4.88 | 291 | 33.1
COc1c(Cl)cccc1Nc1c(-c2ccncc2OCC2(C)CCO2)[nH]c2c1C(=O)NCC2CCO (single isomer, unassigned) [Example 21, 3-(3-chloro-2-methoxyanilino)-7-(2-hydroxyethyl)-2-{3-[(2-methyloxetan-2-yl)methoxy]pyridin-4-yl}-1,5,6,7-tetrahydro-4H-pyrrolo[3,2-c]pyridin-4-one] | 473 | < 4.70 | 943 | 67.9
COc1c(Cl)cccc1Nc1c(-c2ccncc2OC[C@@H]2CN(CC(F)F)CCO2)[nH]c2c1C(=O)N[C@H](C)C2 [Example 12, (6R)-3-(3-chloro-2-methoxyanilino)-2-(3-{[(2S)-4-(2,2-difluoroethyl)morpholin-2-yl]methoxy}pyridin-4-yl)-6-methyl-1,5,6,7-tetrahydro-4H-pyrrolo[3,2-c]pyridin-4-one] | 172 | < 4.70 | 719 | 48.7
COc1c(Cl)cccc1Nc1c(-c2ccncc2OCCC(C)OC)[nH]c2c1C(=O)N[C@H](C)C2 (mixture of isomers) [Example 120, (6R)-3-(3-chloro-2-methoxy-anilino)-2-[3-(3-methoxybutoxy)-4-pyridyl]-6-methyl-1,5,6,7-tetrahydropyrrolo[3,2-c]pyridin-4-one] | 90.1 | 5.83 | 358 | 31.1
COc1c(Cl)cccc1Nc1c(-c2ccncc2OCC2COC(C)(C)CO2)[nH]c2c1C(=O)NCC2C (single isomer, unassigned) [Example 94, 3-(3-chloro-2-methoxy-anilino)-2-{3-[(5,5-dimethyl-1,4-dioxan-2-yl)methoxy]-4-pyridyl}-7-methyl-1,5,6,7-tetrahydropyrrolo[3,2-c]pyridin-4-one] | 631 | < 4.70 | 1080 | 66.6
COc1c(Cl)cccc1Nc1c(-c2ccncc2OCCC2CCCCO2)[nH]c2c1C(=O)N[C@H](C)C2 (single isomer, unassigned) [Example 88] | 326 | 6.01 | 634 | 70.4
COCC(C)Oc1cnccc1-c1[nH]c2c(c1Nc1cccc(Cl)c1OC)C(=O)N[C@H](C)C2 (single isomer, unassigned) [Example 43] | 418 | < 4.70 | 1860 | 219
COc1c(Cl)cccc1Nc1c(-c2ccncc2OCC2(C)CCO2)[nH]c2c1C(=O)NCC2CCO (single isomer, unassigned) [Example 23, 3-(3-chloro-2-methoxyanilino)-7-(2-hydroxyethyl)-2-{3-[(2-methyloxetan-2-yl)methoxy]pyridin-4-yl}-1,5,6,7-tetrahydro-4H-pyrrolo[3,2-c]pyridin-4-one] | 796 | < 4.70 | 7380 | 920

Now from value to compound, other results behind:

mutEGFR (D770_N771insSVD) kinase assay IC50 [1] [pM] | pIC50 (Bub1) | Structure (SMILES) | GI50 (Ba/F3-EGFR-WT cells) [nM] | GI50 [2] [nM]
157 | 5.31 | COc1c(Cl)cccc1Nc1c(-c2ccncc2OCC(C)OC)[nH]c2c1C(=O)N[C@H](C)C2 (single isomer, unassigned) [Example 81] | 583 | 44
141 | 5.27 | COc1c(Cl)cccc1Nc1c(-c2ccncc2OCC2COCCO2)[nH]c2c1C(=O)N[C@H](C)C2 (single isomer, unassigned) [Example 25] | 358 | 25.9
331 | 5.31 | COc1c(Cl)cccc1Nc1c(-c2ccncc2OCC2COCCO2)[nH]c2c1C(=O)NCC2C (single isomer, unassigned) [Example 36, 3-(3-chloro-2-methoxy-anilino)-2-[3-(1,4-dioxan-2-ylmethoxy)-4-pyridyl]-7-methyl-1,5,6,7-tetrahydropyrrolo[3,2-c]pyridin-4-one] | 963 | 75.3
603 | 5.79 | Cc1c(Cl)cccc1Nc1c(-c2ccncc2OC[C@@H]2CCCO2)[nH]c2c1C(=O)NCC2C (single isomer, unassigned) [Example 60] | 1070 | 175
151 | 5.15 | COc1c(Cl)cccc1Nc1c(-c2ccncc2OCC2OCCC2(F)F)[nH]c2c1C(=O)N[C@H](C)C2 (single isomer, unassigned) [Example 72] | 628 | 36.6
227 | 5.04 | COc1c(Cl)cccc1Nc1c(-c2ccncc2OCC2CCCCO2)[nH]c2c1C(=O)NCC2C (single isomer, unassigned) [Example 48, 3-(3-chloro-2-methoxy-anilino)-7-methyl-2-[3-(tetrahydropyran-2-ylmethoxy)-4-pyridyl]-1,5,6,7-tetrahydropyrrolo[3,2-c]pyridin-4-one] | 611 | 25.7
285 | 4.79 | Cc1c(Cl)cccc1Nc1c(-c2ccncc2OC[C@@H]2CCCO2)[nH]c2c1C(=O)NCC2C (single isomer, unassigned) [Example 59] | 609 | 41.9
282 | 4.84 | COc1c(Cl)cccc1Nc1c(-c2ccncc2OCC2COCCO2)[nH]c2c1C(=O)N[C@@H]1CCC[C@H]21 (single isomer, unassigned) [Example 53] | 712 | 34.9
181 | 5.68 | C=CCOCCOc1cnccc1-c1[nH]c2c(c1Nc1cccc(Cl)c1OC)C(=O)NCC2CC=C (centres unmarked) [Example 114, 7-allyl-2-[3-(2-allyloxyethoxy)-4-pyridyl]-3-(3-chloro-2-methoxy-anilino)-1,5,6,7-tetrahydropyrrolo[3,2-c]pyridin-4-one] | 347 | 28.7
246 | 6.55 | COc1c(Cl)cccc1Nc1c(-c2ccncc2OC[C@@H]2CCCO2)[nH]c2c1C(=O)N[C@H]1CCC[C@@H]21 [Example 57, (5aS,8aR)-3-(3-chloro-2-methoxyanilino)-2-(3-{[(2S)-oxolan-2-yl]methoxy}pyridin-4-yl)-5,5a,6,7,8,8a-hexahydrocyclopenta[b]pyrrolo[2,3-d]pyridin-4(1)-one] | 1710 | 195
242 | 5.51 | COc1c(Cl)cccc1Nc1c(-c2ccncc2OCC2COCCO2)[nH]c2c1C(=O)N[C@H](C)C2 (single isomer, unassigned) [Example 26] | 587 | 63.1
